The structures appear in SMILES notation. Values after ≈ are worked out from the molar mass of the structure shown.

Common to all, as to format: cell-based
One assay relates to Candida albicans 10231. As to the kind of experiment: Broth microdilution MIC (M27-A2), yeast, strain XIV. Conditions: strain XIV 10231, 48 hours incubation. On the procedure:
(§1) For the experiments of the present invention (i) yeast strains obtained from clinical isolates and laboratory isolates, and (ii) bacterial strains obtained from laboratory isolates were used, as described in Table 5 as follows. The yeast strains were grown in culture medium Sabouraud Dextrose Agar maintained at a temperature of 35° C. for 48 hours. […] The compounds were dissolved in dimethyl sulfoxide (DMSO) to match the final concentration of the compound equal to or less than 1%. The methodology used to test the sensitivity of the agent was broth microdilution according to the method described in Standard M27-A2 (Reference method for broth dilution tests to determine the sensitivity of yeasts to antifungal therapy-second edition, NCCLS, volume 22 number 15, USA, 2002) as follows. […] Then the suspensions were diluted in culture medium RPMI-1640 (buffered with MOPS 0.165 mol/l) at a final concentration of 50 to 2500 CFU/mL. The diluted suspensions were inoculated in duplicate in a 96-well plate. The procedure was performed in a laminar flow. […] The incubation of fungi with these compounds was carried out for 48 hours at temperature of 30 to 35° C. […] We have agreed in this experiment that the turbid medium is the result of microbial growth and the presence of deposit and a clear medium represents the absence of microbial growth. The minimum inhibitory concentration (MIC) was defined as the lowest tested drug concentration that prevents any degree of […] growth.

Assay [1] has as its system three different species of yeast and two distinct species of bacteria. Briefly: Growth inhibition of the yeast and bacteria strains of Table 5, summary. On the procedure:
For the experiments of the present invention (i) yeast strains obtained from clinical isolates and laboratory isolates, and (ii) bacterial strains obtained from laboratory isolates were used, as described in Table 5 as follows.
The yeast strains were grown in culture medium Sabouraud Dextrose Agar maintained at a temperature of 35° C. for 48 hours.
The bacterial strains were grown in culture medium Triptic Soy Agar at 35° C. for two to six hours (or until the turbidity of a McFarland standard solution equal to 0.5). 5.2 Mounting of Preparations and Test For the experiments, compound 1-[2-(2,4-dichlorophenyl)-2-{[4-(trifluoromethyl)benzyl]oxy}ethyl]-1H-imidazole (BL-123) in the form of its nitrate salt, 1-[2-(2,4-dichlorophenyl)]-2-({4-[(2-phenyl)-2H-tetrazole]benzyl}oxy)ethyl]-1H-imidazole (BL-137), and miconazole nitrate were used. The compounds were dissolved in dimethyl sulfoxide (DMSO) to match the final concentration of the compound equal to or less than 1%.
The methodology used to test the sensitivity of the agent was broth microdilution according to the method described in Standard M27-A2 (Reference method for broth dilution tests to determine the sensitivity of yeasts to antifungal therapy-second edition, NCCLS, volume 22 number 15, USA, 2002) as follows.
The yeast strains were grown according to item 5.1.a to obtain a culture containing between 1×10^6 and 5×10^6 CFU/mL. […]

Another assay deals with Candida glabrata 2001. As to the kind of experiment: Broth microdilution MIC (M27-A2), yeast, strain XVI. Conditions: strain XVI 2001, 48 hours incubation. Here is the method: as §1
Background: Broth dilution looks for growth in wells or tubes with falling amounts of substance.

Assay [2] has as its system Staphylococcus epidermidis 12228. Briefly: Broth microdilution MIC (M7-A6), bacteria, strain XVII. Conditions: strain XVII 12228, 24 hours incubation. Here is the method: (§2) For the experiments of the present invention (i) yeast strains obtained from clinical isolates and laboratory isolates, and (ii) bacterial strains obtained from laboratory isolates were used, as described in Table 5 as follows. […] The compounds were dissolved in dimethyl sulfoxide (DMSO) to match the final concentration of the compound equal to or less than 1%. The methodology used to test the sensitivity of the agent was broth microdilution according to the method described in Standard M7-A6 (Methodology of sensitivity tests to antimicrobial agents by dilution for bacteria with aerobic growth-6th Edition: NCCLS, volume 23, No. 2, USA, 2003), as follows. […] Then the suspensions were diluted in Mueller Hinton culture medium to a final concentration of 5×10^4CFU/mL. The diluted suspensions were inoculated in 0.1 mL in duplicates in […] plates. The procedure was performed in a laminar flow. […] Incubation of fungi with these compounds was carried out for 24 hours at a temperature of 30 to 35° C. […] We have agreed in this experiment that the turbid medium is the result of microbial growth and the presence of deposit and a clear medium represents the absence of microbial growth. The minimum inhibitory concentration (MIC) was defined as the lowest tested drug concentration that prevents any degree of bacterial growth.

Assay [3] relates to Candida parapsilosis 22019. Briefly: Broth microdilution MIC (M27-A2), yeast, strain XV. The settings on record: strain XV 22019, 48 hours incubation. Here is the method: as §1
Assay [4] deals with Staphylococcus aureus 6538. As to the kind of experiment: Broth microdilution MIC (M7-A6), bacteria, strain XVIII. The settings on record: strain XVIII 6538, 24 hours incubation. On the procedure:
as §2

Broadly, the MIC is the lowest concentration that inhibits growth of the organism. As for `Clc1ccc(C(Cn2ccnc2)OCc2ccc(-c3nnn(-c4ccccc4)n3)cc2)c(Cl)c1` (stereo not drawn) [BL-137], the minimum inhibitory concentration (MIC) was determined as 512.0 µg/mL (≈ 1040 µM) in the assay with Candida albicans 10231; 512.0 µg/mL (≈ 1040 µM) in the assay with Candida glabrata 2001; 128.0 µg/mL (≈ 260 µM) in assay [2]; 512.0 µg/mL (≈ 1040 µM) in assay [3]; 128.0 µg/mL (≈ 260 µM) in assay [4]. For the same compound, the “Inhibitory effect on growth (in words)” value in assay [1] was “exert an inhibitory effect on the growth”.
